Laboratory results: US10376499B2, “Combination therapy for treatment of resistant bacterial infections” (priority 2014, dated 2019)
Converted amounts (≈) assume the structure as drawn.

How the values were obtained:
Escherichia coli = experiment: MIC, recent Enterobacteriaceae clinical isolates: Escherichia coli (Examples 7, 11)
A. baumannii = experiment: MIC by broth microdilution (CLSI), panel of 60 A. baumannii clinical isolates (Example 1); conditions: Acinetobacter baumannii

CC1(C)[C@H](C(=O)O)N2C(=O)C[C@H]2S1(=O)=O [Sulbactam, (2S,5R)-3,3-dimethyl-7-oxo-4-thia-1-azabicyclo[3.2.0]heptane-2-carboxylic acid 4,4-dioxide]
MIC (Escherichia coli; Escherichia coli): 128 µg/mL (≈ 549 µM)
MIC50 (Escherichia coli; Escherichia coli): 64 µg/mL (≈ 274 µM)
MIC90 (Escherichia coli; Escherichia coli): 64 µg/mL (≈ 274 µM)
MIC (Escherichia coli; Escherichia coli ARC4471, CMY-2+, OXA-1+, TEM-1+): 128 µg/mL (≈ 549 µM)
MIC (Escherichia coli; Escherichia coli, ATCC25922, Escherichia coli ARC4, none (ATCC 25922) CLSI control): 64 µg/mL (≈ 274 µM)
MIC (Escherichia coli; Escherichia coli, Escherichia coli ARC4416, CTX-M-14+, TEM-1+): 32 µg/mL (≈ 137 µM)
MIC (Escherichia coli; Escherichia coli, Escherichia coli ARC4418, CTX-M-14+, CMY-2+): 32 µg/mL (≈ 137 µM)
MIC (Escherichia coli; Escherichia coli, Escherichia coli ARC4419, SHV-12+): 32 µg/mL (≈ 137 µM)
MIC (Escherichia coli; Escherichia coli, Escherichia coli ARC4421, CTX-M-55, TEM-1+, CMY-2+): 64 µg/mL (≈ 274 µM)
MIC (Escherichia coli; Escherichia coli, Escherichia coli ARC4426, TEM-1+, CMY-2+): 32 µg/mL (≈ 137 µM)
MIC (Escherichia coli; Escherichia coli, Escherichia coli ARC4429, TEM-1+, CMY-2+): 64 µg/mL (≈ 274 µM)
MIC (Escherichia coli; Escherichia coli, Escherichia coli ARC4436, CTX-M-14+, TEM-1+): 32 µg/mL (≈ 137 µM)
MIC (Escherichia coli; Escherichia coli, Escherichia coli ARC4449, CMY-2+, TEM-1+): 64 µg/mL (≈ 274 µM)
MIC (Escherichia coli; Escherichia coli, Escherichia coli ARC4450, TEM-1+, OXA-1+, CMY-2+): 64 µg/mL (≈ 274 µM)
MIC (Escherichia coli; Escherichia coli, Escherichia coli ARC4452, SHV-12+): 32 µg/mL (≈ 137 µM)
MIC (Escherichia coli; Escherichia coli, Escherichia coli ARC4455, SHV-12+): 32 µg/mL (≈ 137 µM)
MIC (Escherichia coli; Escherichia coli, Escherichia coli ARC4465, CMY-2+): 32 µg/mL (≈ 137 µM)
MIC (Escherichia coli; Escherichia coli, Escherichia coli ARC4472, CMY-2+, TEM-1+): 64 µg/mL (≈ 274 µM)
MIC (Escherichia coli; Escherichia coli, Escherichia coli ARC4477, CTX-M-15+, TEM-1+): 32 µg/mL (≈ 137 µM)
MIC (Escherichia coli; Escherichia coli, Escherichia coli ARC4478, CTX-M-15+, CMY-2+): 32 µg/mL (≈ 137 µM)
MIC (Escherichia coli; Escherichia coli, Escherichia coli ARC4479, CMY-42+, OXA-1+, OXA-9+, TEM-1+): 64 µg/mL (≈ 274 µM)
MIC (Escherichia coli; Escherichia coli, Escherichia coli ARC4485, CMY-2+, OXA-1+, CTX-M-15+): 64 µg/mL (≈ 274 µM)
MIC (Escherichia coli; Escherichia coli, Escherichia coli ARC4487, SHV-5+, DHA-1+, TEM-1+, OXA-1+, CMY-2+): 64 µg/mL (≈ 274 µM)
MIC50 (A. baumannii): 16 µg/mL (≈ 68.6 µM)
MIC90 (A. baumannii): 32 µg/mL (≈ 137 µM)
MIC (A. baumannii; strain ARC593, OXA-98): 1 µg/mL (≈ 4.29 µM)
MIC (A. baumannii; strain ARC2058, OXA-95): 2 µg/mL (≈ 8.57 µM)
MIC (A. baumannii; strain ARC2461, OXA-66, TEM-1): 16 µg/mL (≈ 68.6 µM)
MIC (A. baumannii; strain ARC2462, TEM-1, OXA-66): 16 µg/mL (≈ 68.6 µM)
MIC (A. baumannii; strain ARC2598, OXA*, TEM-1, OXA-113): 16 µg/mL (≈ 68.6 µM)
MIC (A. baumannii; strain ARC2635, OXA-65, OXA-40, TEM-1): 32 µg/mL (≈ 137 µM)
MIC (A. baumannii; strain ARC2636, OXA-65, OXA-40, TEM-1): 32 µg/mL (≈ 137 µM)
MIC (A. baumannii; strain ARC2675, SHV-5, OXA-113): 16 µg/mL (≈ 68.6 µM)
MIC (A. baumannii; strain ARC2681, OXA-40, TEM-1, OXA-132): 16 µg/mL (≈ 68.6 µM)
MIC (A. baumannii; strain ARC2682, SHV-5, OXA-113): 4 µg/mL (≈ 17.1 µM)
MIC (A. baumannii; strain ARC2778, OXA-40, TEM-1, OXA-65): 16 µg/mL (≈ 68.6 µM)
MIC (A. baumannii; strain ARC2779 (A. baumannii/calcoaceticus complex), OXA-2, VIM-2): 16 µg/mL (≈ 68.6 µM)
MIC (A. baumannii; strain ARC2780 (A. baumannii/calcoaceticus complex), OXA*, OXA-2, IMP-1): 4 µg/mL (≈ 17.1 µM)
MIC (A. baumannii; strain ARC2782, OXA-66, OXA-23, TEM-1, PER-1): 32 µg/mL (≈ 137 µM)
MIC (A. baumannii; strain ARC3484, TEM-1, OXA-23, OXA-64): 16 µg/mL (≈ 68.6 µM)
MIC (A. baumannii; strain ARC3486, OXA-72, OXA-66, TEM-1): 32 µg/mL (≈ 137 µM)
MIC (A. baumannii; strain ARC3487, OXA-20, OXA-58, OXA-66): 4 µg/mL (≈ 17.1 µM)
MIC (A. baumannii; strain ARC3488, OXA*, OXA-68): 16 µg/mL (≈ 68.6 µM)
MIC (A. baumannii; strain ARC3489, OXA*, OXA-68): 2 µg/mL (≈ 8.57 µM)
MIC (A. baumannii; strain ARC3490, TEM-1+, PSE-2, OXA-69): 32 µg/mL (≈ 137 µM)
MIC (A. baumannii; strain ARC3491 (A. baumannii/calcoaceticus complex), OXA-215): 0.5 µg/mL (≈ 2.14 µM)
MIC (A. baumannii; strain ARC3492, OXA-40, OXA-132, TEM-1): 16 µg/mL (≈ 68.6 µM)
MIC (A. baumannii; strain ARC3493, OXA-40, OXA-66): 64 µg/mL (≈ 274 µM)
MIC (A. baumannii; strain ARC3494, OXA-65): 4 µg/mL (≈ 17.1 µM)
MIC (A. baumannii; strain ARC3495, OXA-40, OXA-109): 32 µg/mL (≈ 137 µM)
MIC (A. baumannii; strain ARC3513, TEM-1, OXA-23, OXA-65): 16 µg/mL (≈ 68.6 µM)
MIC (A. baumannii; strain ARC3657, OXA-130): 32 µg/mL (≈ 137 µM)
MIC (A. baumannii; strain ARC3658, OXA-66, PER-1, TEM-1, OXA-23): 32 µg/mL (≈ 137 µM)
MIC (A. baumannii; strain ARC3659, OXA-23, OXA*): 4 µg/mL (≈ 17.1 µM)
MIC (A. baumannii; strain ARC3882, OXA-23, NDM-1, OXA-10*): > 64 µg/mL
